Several values for one entry are separate records, joined by “and”; a condition that tells them apart may be missing. Equal values may be shown once.
Legend:
[1] = Body weight of tumor-bearing mice during treatment; type: in vivo; conditions: U251 and HCT116 tumor-bearing mice; 25, 50 and 100 mg/kg oral daily
Protocol: Figure 5 Anti-tumor activities of YLT192 in vivo. (A) U251 and HCT116 tumor-bearing mice were treated orally with YLT192 at 25, 50 and 100 mg/kg or vehicle daily, respectively. […] (B) Body weight changes in YLT192 and vehicle treated mice. […] For A and B, data are means ± SD. (C) and (D), YLT192 inhibited tumor cell proliferation in HCT116 tumor tissues in vivo. Mice bearing HCT116 tumor xenograft were treated with YLT192 at 50 and 100 mg/kg or vehicle and sacrificed at the end of the experiment. The tumor tissues were removed for further immunohistochemistry analysis using anti-Ki67 (C) and anti-p-p44/42 MAPK antibodies (D). (E) YLT192 induced tumor cell apoptosis in HCT116 tumor in vivo. Apoptosis was measured by TUNEL staining (n = 6 mice per group). Scale bars represent 100 μm.
All animal experiments were approved and conducted by the Institutional Animal Care and Treatment Committee of Sichuan University in China (Permit Number: 20121205). […] Tumor growth and body weight was measured every three days during the treatment. Tumor volumes were calculated using the formula as follow: volume (mm^3) = 0.5 × length (mm) × width (mm)^2. Growth inhibition was calculated from the start of treatment by comparison of the mean change in tumor volume for vehicle and treated group as before.

EGFR = biological target: T1, EGFR (Homo sapiens, UniProt P00533); test: Radiometric kinase assay (Millipore Kinase Profile Service); type: biochemical; conditions: means ± SD, two independent experiments, read-out: inhibition rate at 1 μM (%)
T1 construct: purchased Millipore (Kinase Profile Service, UK)
Protocol: (§1) YLT192 was designed and synthesized in the State Key Laboratory of Biotherapy, Sichuan University (Sichuan, China). Its structural formula and synthesis route was shown in Fig. 1A and Supplementary Figure S1, respectively. The kinase inhibitory activity of YLT192 was measured by the use of radiometric assays provided by Kinase Profile Service (Millipore, UK). The effects of YLT192 on kinase activity were detected using the scintillation proximity assay method at an enzymatic level. […] In addition, the inhibitory activity of YLT192 was examined against platelet-derived growth factor receptor (PDGFR)-related kinases because of their structural similarity to the VEGFR2. […] Moreover, excellent selectivity for VEGFR2 was evident compared with a range of unrelated tyrosine and serine/threonine kinases, including fibroblast growth factor receptor 3, polo-like kinase 1, aurora-A, Axl, MET, protein kinase A, c-RAF etc.

ALK = biological target: T2, ALK (Homo sapiens, UniProt Q9UM73); test: as above; type: biochemical; conditions: means ± SD, two independent experiments, read-out: inhibition rate at 1 μM (%)
T2 construct: purchased Millipore (Kinase Profile Service, UK)
Protocol: as §1

Flt3 = biological target: T3, Flt3 (Homo sapiens, UniProt P36888); test: as above; type: biochemical; conditions: means ± SD, two independent experiments
T3 construct: purchased Millipore (Kinase Profile Service, UK)
Protocol: as §1

PDGFRβ = biological target: T4, PDGFRβ (Homo sapiens, UniProt P09619); test: as above; type: biochemical; conditions: means ± SD, two independent experiments, read-out: inhibition rate at 1 μM (%)
T4 construct: purchased Millipore (Kinase Profile Service, UK)
Protocol: as §1

FGFR1 = biological target: T5, FGFR1 (Homo sapiens, UniProt P11362); test: as above; type: biochemical; conditions: means ± SD, two independent experiments, read-out: inhibition rate at 1 μM (%)
T5 construct: purchased Millipore (Kinase Profile Service, UK)
Protocol: as §1

Plk1 = biological target: T6, Plk1 (Homo sapiens, UniProt P53350); test: as above; type: biochemical; conditions: means ± SD, two independent experiments, read-out: inhibition rate at 1 μM (%)
T6 construct: purchased Millipore (Kinase Profile Service, UK)
Protocol: as §1

GSK3β = biological target: T7, GSK3β (Homo sapiens, UniProt P49841); test: as above; type: biochemical; conditions: means ± SD, two independent experiments, read-out: inhibition rate at 1 μM (%)
T7 construct: purchased Millipore (Kinase Profile Service, UK)
Protocol: as §1

Fms = biological target: T8, Fms (Homo sapiens, UniProt P07333); test: as above; type: biochemical; conditions: means ± SD, two independent experiments, read-out: inhibition rate at 1 μM (%)
T8 construct: purchased Millipore (Kinase Profile Service, UK)
Protocol: as §1

LCK = biological target: T9, LCK (Homo sapiens, UniProt P06239); test: as above; type: biochemical; conditions: means ± SD, two independent experiments, read-out: inhibition rate at 1 μM (%)
T9 construct: purchased Millipore (Kinase Profile Service, UK)
Protocol: as §1

CDK2/cyclinE = biological target: T10, CDK2/cyclinE (Homo sapiens, UniProt P24941); test: as above; type: biochemical; conditions: means ± SD, two independent experiments, read-out: inhibition rate at 1 μM (%)
T10 construct: purchased Millipore (Kinase Profile Service, UK)
Protocol: as §1

CDK6/cyclinD3 = biological target: T11, CDK6/cyclinD3 (Homo sapiens, UniProt Q00534); test: as above; type: biochemical; conditions: means ± SD, two independent experiments, read-out: inhibition rate at 1 μM (%)
T11 construct: purchased Millipore (Kinase Profile Service, UK)
Protocol: as §1

cKit = biological target: T12, cKit (Homo sapiens, UniProt P10721); test: as above; type: biochemical; conditions: means ± SD, two independent experiments, read-out: inhibition rate at 1 μM (%)
T12 construct: purchased Millipore (Kinase Profile Service, UK)
Protocol: as §1

PI3K = test: as above; type: biochemical; conditions: means ± SD, two independent experiments
Protocol: as §1

IR = biological target: T13, IR (Homo sapiens, UniProt P06213); test: as above; type: biochemical; conditions: means ± SD, two independent experiments, read-out: inhibition rate at 1 μM (%)
T13 construct: purchased Millipore (Kinase Profile Service, UK)
Protocol: as §1

Aurora-A = biological target: T14, Aurora-A (Homo sapiens, UniProt O14965); test: as above; type: biochemical; conditions: means ± SD, two independent experiments, read-out: inhibition rate at 1 μM (%)
T14 construct: purchased Millipore (Kinase Profile Service, UK)
Protocol: as §1

FGFR2 = biological target: T15, FGFR2 (Homo sapiens, UniProt P21802); test: as above; type: biochemical; conditions: means ± SD, two independent experiments, read-out: inhibition rate at 1 μM (%)
T15 construct: purchased Millipore (Kinase Profile Service, UK)
Protocol: as §1

[2] = test system: alginate beads containing CT26 tumor cells; test: Alginate-encapsulated tumor cell assay; type: in vivo, mice; conditions: 100 mg/kg oral once daily, 14 days, vs vehicle
Protocol: Figure 3 YLT192 inhibited angiogenesis in vivo. (A) Fluorescent images of 30 hpf zebrafish treated with vehicle or concentrations of YLT192. ISV growth was inhibited by YLT192. One representative experiment of three is shown. Data are means ± SEM (n = 10 per group), *P < 0.05, **P < 0.01. Scale bars represent 100 μm. […] Frozen sections of HCT116 tumors were tested by immunohistochemistry analysis with anti-CD31 antibody. Representative images of the tumor vasculature from vehicle and YLT192 treated mice were shown. The fields were averaged in each tumor, and the averages for each animal were used to give the final mean ± SD (n = 6 mice per group). *P < 0.05, **P < 0.01. Scale bars represent 100 μm. […] Alginate beads containing 5 × 10^4 CT26 cells were implanted s.c. into the backs of mice. Mice were then orally treated with YLT192 or vehicle once daily. Beads were surgically removed 14 days later and FITC-dextran was quantified. […] Data are means ± SD (n = 6 mice per group), *P < 0.05, **P < 0.01. Scale bars represent 500 μm.
To determine whether YLT192 could inhibit angiogenesis induced by tumor cells in vivo, we did the alginate-encapsulated tumor cell assay as described previously. […] The content of FITC-dextran in the beads was quantified as described previously.

T3 sequence (P36888 27-993): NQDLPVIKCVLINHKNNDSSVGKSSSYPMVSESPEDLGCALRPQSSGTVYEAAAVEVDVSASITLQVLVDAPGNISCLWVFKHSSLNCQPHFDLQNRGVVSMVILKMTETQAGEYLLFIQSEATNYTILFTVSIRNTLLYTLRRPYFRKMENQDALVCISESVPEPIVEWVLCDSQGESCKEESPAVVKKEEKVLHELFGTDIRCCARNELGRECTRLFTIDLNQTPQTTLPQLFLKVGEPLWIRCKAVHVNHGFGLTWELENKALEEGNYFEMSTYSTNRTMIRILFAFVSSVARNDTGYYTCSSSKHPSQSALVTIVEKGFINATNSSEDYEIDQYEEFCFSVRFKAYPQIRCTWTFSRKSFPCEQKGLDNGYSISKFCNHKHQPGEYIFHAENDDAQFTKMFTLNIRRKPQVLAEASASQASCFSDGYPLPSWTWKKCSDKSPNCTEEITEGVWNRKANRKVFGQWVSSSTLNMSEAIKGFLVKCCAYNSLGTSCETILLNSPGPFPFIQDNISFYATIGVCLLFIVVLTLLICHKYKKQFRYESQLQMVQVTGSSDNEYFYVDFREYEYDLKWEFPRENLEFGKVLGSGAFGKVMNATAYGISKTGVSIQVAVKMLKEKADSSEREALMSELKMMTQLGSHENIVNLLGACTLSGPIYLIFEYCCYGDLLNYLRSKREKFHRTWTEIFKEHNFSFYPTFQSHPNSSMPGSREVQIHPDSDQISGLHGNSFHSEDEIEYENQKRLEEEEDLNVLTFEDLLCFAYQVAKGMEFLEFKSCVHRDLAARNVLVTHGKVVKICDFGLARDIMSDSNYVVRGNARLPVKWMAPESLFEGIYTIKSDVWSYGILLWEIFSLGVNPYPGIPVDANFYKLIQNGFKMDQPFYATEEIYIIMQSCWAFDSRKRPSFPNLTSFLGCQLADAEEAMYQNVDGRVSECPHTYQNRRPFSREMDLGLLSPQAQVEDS
T4 sequence (P09619 33-1106): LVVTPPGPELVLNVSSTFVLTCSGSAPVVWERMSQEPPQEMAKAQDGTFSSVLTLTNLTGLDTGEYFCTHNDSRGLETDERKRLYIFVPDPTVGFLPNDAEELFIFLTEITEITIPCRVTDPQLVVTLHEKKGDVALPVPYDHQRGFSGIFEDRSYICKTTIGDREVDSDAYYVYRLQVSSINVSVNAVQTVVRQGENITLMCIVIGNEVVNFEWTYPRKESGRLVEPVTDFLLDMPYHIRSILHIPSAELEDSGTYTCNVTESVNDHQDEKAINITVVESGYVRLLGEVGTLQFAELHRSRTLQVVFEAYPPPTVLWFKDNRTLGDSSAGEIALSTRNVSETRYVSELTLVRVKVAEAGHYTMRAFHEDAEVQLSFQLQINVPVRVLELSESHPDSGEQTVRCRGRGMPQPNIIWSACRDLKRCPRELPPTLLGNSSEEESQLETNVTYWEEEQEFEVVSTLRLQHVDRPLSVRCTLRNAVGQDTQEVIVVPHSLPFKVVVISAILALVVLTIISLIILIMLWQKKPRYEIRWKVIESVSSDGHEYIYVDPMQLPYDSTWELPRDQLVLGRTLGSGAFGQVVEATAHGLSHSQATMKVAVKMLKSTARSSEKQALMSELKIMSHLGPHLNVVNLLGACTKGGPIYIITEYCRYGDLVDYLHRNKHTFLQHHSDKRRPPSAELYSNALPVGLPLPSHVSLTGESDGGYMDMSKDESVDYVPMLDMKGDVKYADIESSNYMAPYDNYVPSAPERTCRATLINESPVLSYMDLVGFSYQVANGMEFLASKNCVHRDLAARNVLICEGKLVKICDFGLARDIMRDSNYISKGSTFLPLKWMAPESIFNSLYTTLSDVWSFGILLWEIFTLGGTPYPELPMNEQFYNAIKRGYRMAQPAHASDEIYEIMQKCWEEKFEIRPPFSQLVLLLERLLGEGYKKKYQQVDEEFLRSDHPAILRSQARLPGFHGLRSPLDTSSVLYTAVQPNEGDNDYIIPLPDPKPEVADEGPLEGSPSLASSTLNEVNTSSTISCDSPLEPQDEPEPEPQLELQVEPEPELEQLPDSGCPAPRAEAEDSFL
T12 sequence (P10721 26-976): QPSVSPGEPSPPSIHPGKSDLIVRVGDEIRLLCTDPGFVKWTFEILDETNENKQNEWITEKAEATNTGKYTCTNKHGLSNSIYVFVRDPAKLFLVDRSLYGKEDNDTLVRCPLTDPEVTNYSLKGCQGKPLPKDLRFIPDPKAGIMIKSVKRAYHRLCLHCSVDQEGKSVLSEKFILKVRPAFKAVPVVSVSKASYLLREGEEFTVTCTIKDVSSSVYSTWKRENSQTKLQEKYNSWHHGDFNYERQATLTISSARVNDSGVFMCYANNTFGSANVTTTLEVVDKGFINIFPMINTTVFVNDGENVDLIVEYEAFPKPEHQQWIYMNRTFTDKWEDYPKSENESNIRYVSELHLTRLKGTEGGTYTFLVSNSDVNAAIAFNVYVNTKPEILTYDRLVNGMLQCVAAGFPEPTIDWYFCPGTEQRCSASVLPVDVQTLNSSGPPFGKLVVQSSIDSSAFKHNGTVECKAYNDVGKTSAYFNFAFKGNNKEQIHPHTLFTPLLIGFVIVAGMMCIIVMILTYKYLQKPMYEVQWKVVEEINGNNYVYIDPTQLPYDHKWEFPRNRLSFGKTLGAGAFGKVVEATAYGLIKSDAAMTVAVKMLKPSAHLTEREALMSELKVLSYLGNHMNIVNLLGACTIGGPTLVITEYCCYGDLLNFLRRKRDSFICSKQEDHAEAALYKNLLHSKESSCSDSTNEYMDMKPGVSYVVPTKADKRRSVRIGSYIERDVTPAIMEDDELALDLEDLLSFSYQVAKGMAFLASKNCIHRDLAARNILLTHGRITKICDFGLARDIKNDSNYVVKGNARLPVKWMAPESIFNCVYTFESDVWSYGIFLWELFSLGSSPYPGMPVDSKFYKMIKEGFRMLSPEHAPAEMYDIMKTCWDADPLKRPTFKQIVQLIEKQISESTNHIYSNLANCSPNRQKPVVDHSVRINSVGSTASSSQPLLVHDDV
T15 sequence (P21802 22-821): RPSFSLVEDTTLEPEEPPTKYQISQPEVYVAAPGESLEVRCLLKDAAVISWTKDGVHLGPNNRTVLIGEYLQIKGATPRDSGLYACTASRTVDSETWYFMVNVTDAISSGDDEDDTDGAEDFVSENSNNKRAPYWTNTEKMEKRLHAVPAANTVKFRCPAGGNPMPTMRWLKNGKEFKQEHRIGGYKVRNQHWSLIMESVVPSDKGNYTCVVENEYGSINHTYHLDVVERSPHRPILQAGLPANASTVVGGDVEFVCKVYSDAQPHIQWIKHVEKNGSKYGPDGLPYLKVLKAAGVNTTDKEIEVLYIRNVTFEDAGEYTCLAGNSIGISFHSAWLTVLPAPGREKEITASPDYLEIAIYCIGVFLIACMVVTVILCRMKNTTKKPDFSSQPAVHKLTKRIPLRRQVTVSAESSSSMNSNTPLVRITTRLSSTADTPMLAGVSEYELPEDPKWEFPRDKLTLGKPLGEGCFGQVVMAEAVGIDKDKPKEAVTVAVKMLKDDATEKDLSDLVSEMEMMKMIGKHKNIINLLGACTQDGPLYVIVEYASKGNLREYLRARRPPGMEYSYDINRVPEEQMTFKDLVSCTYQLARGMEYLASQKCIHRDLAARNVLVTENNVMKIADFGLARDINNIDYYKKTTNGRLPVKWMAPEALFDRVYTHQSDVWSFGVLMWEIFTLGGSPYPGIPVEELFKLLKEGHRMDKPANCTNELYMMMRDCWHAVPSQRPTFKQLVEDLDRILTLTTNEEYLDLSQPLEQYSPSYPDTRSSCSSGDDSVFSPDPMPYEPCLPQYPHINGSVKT
T14 sequence (O14965 whole entry): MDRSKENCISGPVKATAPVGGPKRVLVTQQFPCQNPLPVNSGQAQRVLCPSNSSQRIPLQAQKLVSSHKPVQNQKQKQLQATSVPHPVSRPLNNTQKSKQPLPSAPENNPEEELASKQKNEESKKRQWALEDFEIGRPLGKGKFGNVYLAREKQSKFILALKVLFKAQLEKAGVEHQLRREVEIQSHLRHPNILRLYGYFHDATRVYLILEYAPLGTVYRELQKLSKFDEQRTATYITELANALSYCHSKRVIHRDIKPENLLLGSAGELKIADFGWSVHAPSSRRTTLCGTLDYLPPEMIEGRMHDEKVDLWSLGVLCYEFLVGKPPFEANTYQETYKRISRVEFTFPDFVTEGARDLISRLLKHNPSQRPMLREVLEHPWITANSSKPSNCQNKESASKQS
T11 sequence (Q00534 whole entry): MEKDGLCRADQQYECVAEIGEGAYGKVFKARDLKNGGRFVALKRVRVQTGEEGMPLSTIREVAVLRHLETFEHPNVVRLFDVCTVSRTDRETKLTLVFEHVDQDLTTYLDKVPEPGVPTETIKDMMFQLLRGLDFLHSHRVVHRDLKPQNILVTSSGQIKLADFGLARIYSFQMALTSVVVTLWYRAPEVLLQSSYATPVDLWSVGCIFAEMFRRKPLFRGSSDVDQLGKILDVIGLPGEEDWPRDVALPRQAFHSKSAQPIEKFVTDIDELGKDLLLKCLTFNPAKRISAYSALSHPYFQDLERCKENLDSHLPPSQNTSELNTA
T11 sequence (P30281 whole entry partner): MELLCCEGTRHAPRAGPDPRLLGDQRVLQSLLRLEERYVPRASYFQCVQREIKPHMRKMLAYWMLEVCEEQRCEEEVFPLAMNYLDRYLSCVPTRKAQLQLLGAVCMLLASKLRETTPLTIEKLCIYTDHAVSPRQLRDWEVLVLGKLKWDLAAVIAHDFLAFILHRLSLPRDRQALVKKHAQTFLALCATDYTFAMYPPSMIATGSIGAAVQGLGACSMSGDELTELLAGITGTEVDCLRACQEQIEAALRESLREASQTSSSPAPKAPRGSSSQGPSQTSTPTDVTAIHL

For CNC(=O)c1cc(Oc2ccc(NC(=O)c3cccc(OC)c3)cc2)ccn1 [YLT192], the “body weight vs vehicle group” value [1] was “no significant difference”, the inhibition at 1 µM (EGFR) was 1 ± 6% and the inhibition at 1 µM (ALK) was -4 ± 3%. For the same compound, the “inhibition rate at 1 μM (%)” value (Flt3) was 0% and −6 ± 2%, the inhibition at 1 µM (PDGFRβ) was 7 ± 8% and the inhibition at 1 µM (FGFR1) was 21 ± 3%. For the same compound, the inhibition at 1 µM (Plk1) was 1 ± 3%, the inhibition at 1 µM (GSK3β) was 4 ± 6% and the inhibition at 1 µM (Fms) was 35 ± 11%. It also gave an inhibition at 1 µM (LCK) of 3 ± 6%, an inhibition at 1 µM (CDK2/cyclinE) of -9 ± 3% and an inhibition at 1 µM (CDK6/cyclinD3) of 0%. The inhibition at 1 µM (cKit) was 6 ± 3%, the “inhibition rate at 1 μM (%)” value (PI3K) was 0 ± 2% and the inhibition at 1 µM (IR) was 3 ± 3%. The inhibition at 1 µM (Aurora-A) was -1 ± 4%, the inhibition at 1 µM (FGFR2) was 19 ± 4% and the “reduction of accumulation of FITC-dextran” value [2] was 66%.

From PMC4129416, “YLT192, a Novel, Orally Active Bioavailable Inhibitor of VEGFR2 Signaling with Potent Antiangiogenic Activity and Antitumor Efficacy in Preclinical Models” (Scientific Reports, 2014)
